{
  "source": "patent US20200062719A1",
  "about": "“Application of Imidazopyridine Derivatives in Regenerative Medicine” (University of Heidelberg, priority 2018, published 2020)",
  "key": {"KDM5A": {"biological_target": "T1, KDM5A (Homo sapiens, UniProt P29375)", "T1 construct": "magnetic beads were used to immunoprecipitate the respective enzymes from 10^8 cells; endogenous in cells", "T1 sequence (P29375 whole entry)": "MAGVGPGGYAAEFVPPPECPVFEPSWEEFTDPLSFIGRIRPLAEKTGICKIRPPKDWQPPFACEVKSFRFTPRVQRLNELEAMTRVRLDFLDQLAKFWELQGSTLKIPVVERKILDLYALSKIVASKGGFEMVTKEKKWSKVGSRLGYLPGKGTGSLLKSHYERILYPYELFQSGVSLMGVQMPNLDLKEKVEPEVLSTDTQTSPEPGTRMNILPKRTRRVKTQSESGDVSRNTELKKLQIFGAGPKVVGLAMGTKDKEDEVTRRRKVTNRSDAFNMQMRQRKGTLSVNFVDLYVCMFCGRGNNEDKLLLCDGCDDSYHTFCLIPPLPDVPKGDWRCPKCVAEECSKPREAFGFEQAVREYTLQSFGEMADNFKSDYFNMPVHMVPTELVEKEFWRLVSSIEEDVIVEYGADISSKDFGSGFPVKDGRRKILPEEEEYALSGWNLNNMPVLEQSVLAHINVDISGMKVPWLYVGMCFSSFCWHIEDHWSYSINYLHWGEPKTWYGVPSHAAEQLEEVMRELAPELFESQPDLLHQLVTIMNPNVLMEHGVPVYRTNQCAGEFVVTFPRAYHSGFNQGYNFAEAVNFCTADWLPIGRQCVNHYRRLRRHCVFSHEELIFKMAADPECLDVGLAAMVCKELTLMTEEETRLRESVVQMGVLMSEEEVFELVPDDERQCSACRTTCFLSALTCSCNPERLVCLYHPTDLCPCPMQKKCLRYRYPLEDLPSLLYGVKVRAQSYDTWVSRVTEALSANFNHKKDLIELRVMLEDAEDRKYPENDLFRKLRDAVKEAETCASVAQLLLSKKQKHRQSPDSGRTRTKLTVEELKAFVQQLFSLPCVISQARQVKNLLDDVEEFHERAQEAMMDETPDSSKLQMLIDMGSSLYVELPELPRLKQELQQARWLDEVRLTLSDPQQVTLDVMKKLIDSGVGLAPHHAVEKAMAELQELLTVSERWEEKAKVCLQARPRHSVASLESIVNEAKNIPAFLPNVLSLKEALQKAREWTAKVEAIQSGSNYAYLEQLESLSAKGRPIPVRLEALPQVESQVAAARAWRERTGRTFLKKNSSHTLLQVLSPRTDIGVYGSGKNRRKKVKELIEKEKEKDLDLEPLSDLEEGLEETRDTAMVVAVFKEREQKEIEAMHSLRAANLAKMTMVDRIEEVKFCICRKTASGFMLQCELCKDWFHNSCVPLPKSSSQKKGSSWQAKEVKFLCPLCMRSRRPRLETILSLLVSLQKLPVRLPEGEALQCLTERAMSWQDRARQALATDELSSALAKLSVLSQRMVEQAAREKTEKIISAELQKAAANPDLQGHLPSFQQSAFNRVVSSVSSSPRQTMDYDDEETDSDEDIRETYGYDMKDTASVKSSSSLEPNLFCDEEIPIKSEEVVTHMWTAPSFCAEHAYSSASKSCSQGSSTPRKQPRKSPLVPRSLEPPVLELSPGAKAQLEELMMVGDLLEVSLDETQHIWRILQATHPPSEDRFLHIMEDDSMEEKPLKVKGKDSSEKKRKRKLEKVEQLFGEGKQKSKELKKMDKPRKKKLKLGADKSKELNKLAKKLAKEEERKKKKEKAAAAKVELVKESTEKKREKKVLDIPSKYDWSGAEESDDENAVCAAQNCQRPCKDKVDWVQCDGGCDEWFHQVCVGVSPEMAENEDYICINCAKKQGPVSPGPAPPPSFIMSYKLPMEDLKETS", "test": "KDM5A inhibition, enzyme immunoprecipitated from cells", "assay_type": "biochemical", "text": "In mammalian cells, the KDM5 family consists of four members, namely, KDM5A (known as JARID1A), KDM5B (known as JARID1B or PLU1), KDM5C (JARID1C), and KDM5D (JARID1D or SMCY). […] Next, the inventors tested four KDM chemical inhibitors. […] The inventors detected the induction of OCT4, SOX2, and E-Cadherin expression in JIB-04-treated HFs (FIG. 18D).\n(§1) Epiquik histone demethylase (H3K4 specific) activity/inhibition assay kit (Epigentek, Biocat, Germany) was used to measure the protective effect of O4I3 and zolpidem on the methylation of H3K4. Their inhibitory effects on LSD1, KDM5s, and KDM4 were determined using Epigenase jarid demethylase activity/inhibition assay kit, Epigenase JMJD2 demethylase activity/inhibition assay kit and EpiQuik histone demethylase LSD1 activity/inhibition assay kit (Epigentek, Biocat, Germany). The total nuclear extraction was used according to manufacturer's instructions. For measuring KDM5A, KDM5B, KDM5C, and KDM5D activity, magnetic beads were used to immunoprecipitate the respective enzymes from 10^8 cells according to the manufacturer's instructions (Cell Signaling Technologies)."}, "KDM4 [1]": {"tested_on": "KDM4", "test": "KDM4 (JMJD2) demethylase inhibition, nuclear extraction", "assay_type": "biochemical", "text": "(§2) HMT and HDM are two major classes of enzymes, contributing to the regulation of histone methylation. Lysine-specific demethylase 1 (LSD1) and histone lysine demethylase 5 (KDM5, also known as JARID1) majorly catalyze demethylation of H3K4. A few KDM5 chemical inhibitors have been reported to inhibit demethylation of H3K4, leading to an increase of global methylated H3K4 in various cell types. The inventors tested the inhibitory effect of O4I3 on LSD1 and KDM5. KDM4 (also known as JMJD2), the HDM of H3K9 and H3K36, was also included.\nas §1"}, "KDM4 [2]": {"biological_target": "T2, KDM4", "T2 construct": "other: whole-cell nuclear extraction; other: micromolar concentrations", "test": "KDM4 (JMJD2) demethylase inhibition, nuclear extraction", "assay_type": "biochemical", "conditions": "whole-cell nuclear extraction", "text": "as §2, §1"}, "H3K4Me3": {"tested_on": "H3K4Me3", "test": "Global H3K4Me3 level in fibroblasts (immunocytochemistry, immunoblotting)", "assay_type": "cell-based, human", "text": "The inventors investigated the transfection efficiency in HF1 and HF4 using the same episomal vector carrying cytomegalovirus (CMV)-driven GFP. The inventors could not observe a significant difference between two cell lines, as determined by FACS analysis. […] To study the epigenetic effects of O4I3 and its relevance to reprogramming, the inventors focused on two histone modifications at the promoter of OCT4, namely, H3K4Me3, known to be related to gene activation, and H3K27Me3, which indicates gene repression. […] The level of H3K27Me3 at the OCT4 promoter was minimally affected in our experiments (FIG. 17C). […] Immunoblotting confirmed a dose- and time-dependent increase of global H3K4Me3 expression in fibroblast, whereas H3K27Me3 remained mostly unaffected (FIG. 17E). In an in vitro methylation assay, O4I3 protected methylated H3K4 with an […] value of 20 nM (FIG. 17F). Trimethylation of H3K9 has been reported to block reprogramming by recruiting heterochromatin protein 1 to form heterochromatin at the core of pluripotency loci, which interferes with the hypermethylation of H3K4. […]\nFibroblasts were treated with O4I3 0.5 μM for 2 days in the presence/absence of reprogramming transcription factors. […] The signal intensity was analyzed using ImageJ software as single cell level randomly selected from at least three independent experiments."}, "Oct4": {"tested_on": "Oct4", "test": "Luciferase reporter assay in NCCIT-Oct4 cells", "assay_type": "cell-based, human", "conditions": "O4I3 1 nM, a 10,000-fold lower concentration; both reporter cell lines"}, "KDM5": {"tested_on": "KDM5", "test": "KDM5 demethylase inhibition, whole-cell nuclear extraction", "assay_type": "biochemical", "conditions": "whole-cell nuclear extraction", "text": "as §2, §1"}, "promoter of Oct4": {"tested_on": "promoter of Oct4", "test": "ChIP-qPCR of H3K4Me3 at the promoter of Oct4 in reprogramming-resistant fibroblasts", "assay_type": "cell-based, human", "conditions": "reprogramming-resistant patient fibroblasts", "text": "The importance of active tri-methylation of histone H3 lysine 4 (H3K4Me3) in promoting transcription factors binding to an ‘open’ chromatin state and thereby initiation of reprogramming is known in the art. In good agreement, the inventors found the abundance of H3K4Me3 in O4I3-treated reprogramming-resistant fibroblasts by immunostaining (FIG. 14) and immunoblotting (FIG. 5B). To directly study if O4I3 facilitated the binding of H3K4Me3 to the promoter of Oct4, a CHIP-qPCR experiment was performed.\nIn reprogramming-resistant HF4, the level of H3K4Me3 at the promoter of OCT4 was increased by OSKM, but was still nearly 1,000-fold lower than that in PSCs (FIG. 19A). […] However, a clear influence on H3K4 methylation was not observed in the presence of KDM5B-, KDM5C-, or KDM5D-siRNA (FIG. 19A). […] Indeed, the reprogramming efficiency is negatively correlated with the expression of KDM5A in 11 HFs (FIG. 19D). Moreover, KDM5A siRNA increased the global level of H3K4Me3 in a dose-dependent manner (FIG. 19E). Of note, the alternation in the occupation of H3K27Me3 at the promoter of OCT4 was more refractory to chemical inhibition or genetic repression of KDM5s in the inventors' experiments (FIG. 19B). […]"}},
  "data": [
    {"smiles": "Cc1ccc(-c2cn3cc(C)ccc3n2)cc1", "note": "[O4I3, 6-methyl-2-(p-tolyl)imidazo[1,2-a]pyridine]", "values": [
      {"measurement": "IC50", "setting": "KDM5A", "result": 0.19, "unit": "nM"},
      {"measurement": "less potency on KDM4 than on KDM5", "setting": "KDM4 [1]", "result": 500, "unit": "fold"},
      {"measurement": "IC50", "setting": "KDM4 [2]", "result": 249, "unit": "nM"},
      {"measurement": "global level of H3K4Me3", "setting": "H3K4Me3", "result": "increase of H3K4Me3"},
      {"measurement": "induction versus zolpidem at 10 μM", "setting": "Oct4", "result": "comparable induction"},
      {"measurement": "IC50", "setting": "KDM5", "result": 0.79, "unit": "nM"},
      {"measurement": "enrichment of H3K4Me3 at the promoter of Oct4", "setting": "promoter of Oct4", "result": "increased enrichment"}
    ]}
  ]
}
